Assay results published in US20210330611A1, “THERAPY FOR NEUROLOGICAL DISEASES/DISORDERS” (priority 2020, published 2021).
Counter-ions that a name gives are not always drawn. Like-named read-outs stand apart in the source and are kept apart here.

Key:
[1] = tested on: fibrin-induced microglia activation; assay: Image-based assay of fibrin-induced microglia activation (HTS and dose response); format: cell-based, rat; conditions: for inhibition at 10 µM / Fibrin % inhibition: primary microglia HTS; for inhibition at 10 µM: read-out: Fibrin % inhibition
[2] = tested on: LPS-induced microglia activation; assay: Image-based assay of LPS-induced microglia activation (HTS and dose response); format: cell-based, rat; conditions: for inhibition at 10 µM / LPS % inhibition: primary microglia HTS; for inhibition at 10 µM: read-out: LPS % inhibition
[3] = tested on: fibrin- and LPS-induced microglia activation; assay: cells; format: cell-based, rat
primary rat microglia [4] = assay: Cell toxicity (dead cells, size <150 μm2) in LPS assay; conditions: primary microglia HTS
primary rat microglia [5] = assay: Cell toxicity (dead cells, size <150 μm2) in coated fibrin (cFib) assay; conditions: primary microglia HTS;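 note: share of dead cells sized under 150 µm2 at 10 µM in fibrin-stimulated microglia HTS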
[6] = Rattus norvegicus, Microglia, 10 μM, fibrin-stimulated, cell size >800 μm^2 as marker of activation
[7] = Rattus norvegicus, Microglia, 10 μM, LPS-stimulated, cell size >800 μm^2 as marker of activation
[8] = HTS of 1907 compounds, quadrant by fibrin and LPS inhibition
[9] = 10 μM, LPS assay, cell size <150 μm^2 as marker of toxicity
[10] = 10 μM, fibrin assay, cell size <150 μm^2 as marker of toxicity
[11] = 10 μM, fibrin-stimulated, cell size >800 μm^2 as marker of activation
[12] = 10 μM, LPS-stimulated, cell size >800 μm^2 as marker of activation
[13] = Rattus norvegicus, Microglia, fibrin stimulation, increased cell size (>800 μm^2) as marker of activation
[14] = Rattus norvegicus, Microglia, 48 h, LPS stimulation, increased cell size (>800 μm^2) as marker of activation
[15] = quadrant by fibrin and LPS inhibition in HTS of 1907 compounds
[16] = LPS stimulation, decreased size (<150 μm^2) as marker of toxicity
[17] = fibrin stimulation, decreased size (<150 μm^2) as marker of toxicity

SMILES | inhibition at 10 µM [1, 6] [%] | inhibition at 10 µM [2, 7] [%] | Quadrant (FIG. 5b) [3, 8] | LPS % cell toxicity (primary rat microglia [4]; [9]) [%] | Fibrin % cell toxicity (primary rat microglia [5]; [10]) [%] | other results
Cc1ccc(C(=O)Nc2ccc(S(=O)(=O)O)c3cc(S(=O)(=O)O)cc(S(=O)(=O)O)c23)cc1NC(=O)c1cccc(NC(=O)Nc2cccc(C(=O)Nc3cc(C(=O)Nc4ccc(S(=O)(=O)O)c5cc(S(=O)(=O)O)cc(S(=O)(=O)O)c45)ccc3C)c2)c1 [Suramin] | -5 | 18 | Q4 | 0 | 0 | –
CCCCC1(COC(=O)CCC(=O)O)C(=O)N(c2ccccc2)N(c2ccccc2)C1=O [Suxibuzone] | 25 | 23 | Q4 | 0 | 1 | –
CNCC(O)c1ccc(O)cc1 (stereo not shown) [Synephrine] | -16 | 12 | Q4 | 0 | 0 | –
C=CC[C@@H]1/C=C(\C)C[C@H](C)C[C@H](OC)[C@H]2O[C@@](O)(C(=O)C(=O)N3CCCC[C@H]3C(=O)O[C@H](/C(C)=C/[C@@H]3CC[C@@H](O)[C@H](OC)C3)[C@H](C)[C@@H](O)CC1=O)[C@H](C)C[C@@H]2OC [Tacrolimus] | 27 | 14 | Q4 | 0 | 1 | –
CN1CC(=O)N2[C@H](c3ccc4c(c3)OCO4)c3[nH]c4ccccc4c3C[C@@H]2C1=O [Tadalafil] | -1 | 16 | Q4 | 0 | 1 | –
CCOc1ccccc1OCCN[C@H](C)Cc1ccc(OC)c(S(N)(=O)=O)c1.Cl [Tamsulosin Hydrchloride] | – | – | Q4 | 0 | 0 | Fibrin % inhibition [1, 11]: −31%; LPS % inhibition [2, 12]: 12%
CCOc1ccccc1OCCN[C@H](C)Cc1ccc(OC)c(S(N)(=O)=O)c1 [Tamsulosin] | – | – | – | – | – | inhibition at 10 µM [1, 13]: 20%; inhibition at 10 µM [2, 14]: 59%; Quadrant (FIG. 5b) [3, 15]: Q1; LPS % cell toxicity (primary rat microglia [4]; [16]): 2%; Fibrin % cell toxicity (primary rat microglia [5]; [17]): 1%
O=C(OC[C@H]1O[C@@H](OC(=O)c2cc(O)c(O)c(OC(=O)c3cc(O)c(O)c(O)c3)c2)[C@H](OC(=O)c2cc(O)c(O)c(OC(=O)c3cc(O)c(O)c(O)c3)c2)[C@@H](OC(=O)c2cc(O)c(O)c(OC(=O)c3cc(O)c(O)c(O)c3)c2)[C@@H]1OC(=O)c1cc(O)c(O)c(OC(=O)c2cc(O)c(O)c(O)c2)c1)c1cc(O)c(O)c(OC(=O)c2cc(O)c(O)c(O)c2)c1 [Tannic acid, reference compound] | – | – | – | – | – | IC50 ([1]; Rattus norvegicus, Microglia, Table 7, read-out: fib_IC50): 4.96 µM; inhibition at 10 µM [1, 13]: -60%; inhibition at 10 µM [2, 14]: 32%; IC50 ([2]; Rattus norvegicus, Microglia, Table 7, read-out: LPS_IC50): 4.38 µM; Quadrant (FIG. 5b) ([3]; Table 2, screen at 10 μM): Q4; Activity ([3]; Table 7, fib = fibrin, LPS, tox = toxicity): fib/LPS; Quadrant (FIG. 5b) [3, 15]: Q4; LPS % cell toxicity (primary rat microglia [4]; [16]): 1%; Fibrin % cell toxicity (primary rat microglia [5]; [17]): 0%
CCCCC/C=C\CCC(=O)N[C@H]1[C@H](Oc2c3cc4cc2Oc2ccc(cc2Cl)[C@@H](O[C@@H]2O[C@H](CO)[C@@H](O)[C@H](O)[C@H]2NC(C)=O)[C@@H]2NC(=O)[C@H](NC(=O)[C@@H]4NC(=O)[C@H]4NC(=O)[C@@H](Cc5ccc(c(Cl)c5)O3)NC(=O)[C@H](N)c3ccc(O)c(c3)Oc3cc(O)cc4c3)c3ccc(O)c(c3)-c3c(O[C@H]4O[C@H](CO)[C@@H](O)[C@H](O)[C@@H]4O)cc(O)cc3[C@@H](C(=O)O)NC2=O)O[C@H](CO)[C@@H](O)[C@@H]1O [Teicoplanin [a(2-1) Shown]] | – | – | Q4 | 0 | 1 | Fibrin % inhibition [1, 11]: 43%; LPS % inhibition [2, 12]: 20%
CCCc1nc2c(C)cc(-c3nc4ccccc4n3C)cc2n1Cc1ccc(-c2ccccc2C(=O)O)cc1 [Telmisartan] | -24 | -2 | Q4 | 0 | 0 | –
COc1ccc2[nH]c([S+]([O-])Cc3ncc(C)c(OC)c3C)nc2n1 (stereo not shown) [Tenatoprazole] | -17 | 9 | Q4 | 0 | 1 | –
C[C@H](Cn1cnc2c(N)ncnc21)OCP(=O)(O)O [Tenofovir] | – | – | Q4 | 0 | 0 | Fibrin % inhibition [1, 11]: −10%; LPS % inhibition [2, 12]: 17%
O=C1/C(=C/c2cccs2)CCC/C1=C\c1cccs1 [Tenylidone] | -9 | 15 | Q4 | 0 | 1 | –
CN(C/C=C/C#CC(C)(C)C)Cc1cccc2ccccc12 [Terbinafine, Terbinafine Hydrochloride] | – | – | Q4 | 0 | 0 | Fibrin % inhibition [1, 11]: −23%; LPS % inhibition [2, 12]: 6%
CC(C)(C)NCC(O)c1cc(O)cc(O)c1 (stereo not shown) [Terbutaline] | 39 | 28 | Q4 | 0 | 1 | –
CC1(O)CCC(C(C)(C)O)CC1.O (stereo not shown) [Terpene Hydrate] | – | – | Q4 | 0 | 1 | Fibrin % inhibition [1, 11]: −6%; LPS % inhibition [2, 12]: 8%
CCCCNc1ccc(C(=O)OCCN(C)C)cc1 [Tetracaine] | 4 | 9 | Q4 | 1 | 1 | –
O=C1C(O)=C(O)C(=O)C(O)=C1O [Tetraquinone] | – | – | Q4 | 0 | 0 | Fibrin % inhibition [1, 11]: −10%; LPS % inhibition [2, 12]: 15%
c1ccc2c(c1)CCCC2C1=NCCN1 (stereo not shown) [Tetryzoline] | -29 | 16 | Q4 | 0 | 0 | –
Cn1cnc2c1c(=O)[nH]c(=O)n2C [Theobromine] | 11 | 18 | Q4 | 1 | 0 | –
CS(=O)(=O)c1ccc([C@@H](O)[C@@H](CO)NC(=O)C(Cl)Cl)cc1 [Thiamphenicol] | -19 | 12 | Q4 | 0 | 0 | –
C=CCC1(C(C)CCC)C(=O)N=C(S)NC1=O (stereo not shown) [Thiamylal] | -1 | 26 | Q4 | 0 | 0 | –
O=c1oc2cc(O)ccc2s1 [Thioxolone, Tioxolone] | – | – | Q4 | 0 | 0 | Fibrin % inhibition [1, 11]: −18%; LPS % inhibition [2, 12]: 12%
CCCCCCCCCCCCCCCC[N+](C)(C)CCN(Cc1ccc(OC)cc1)c1ncccn1 [Thonzonium Bromide] | -1 | 19 | Q4 | 1 | 0 | –
N[C@@H](Cc1cc(I)c(Oc2cc(I)c(O)c(I)c2)c(I)c1)C(=O)O [Thyroxine, Levothyroxine] | – | – | Q4 | 1 | 1 | Fibrin % inhibition [1, 11]: 5%; LPS % inhibition [2, 12]: 25%
CCN(CC)CCNC(=O)c1cc(S(C)(=O)=O)ccc1OC [Tiapride] | -18 | 6 | Q4 | 0 | 0 | –
C#C[C@]1(O)CC[C@H]2[C@@H]3[C@H](C)CC4=C(CCC(=O)C4)[C@H]3CC[C@@]21C [Tibolone] | -8 | 4 | Q4 | 0 | 0 | –
CC1(C)S[C@@H]2[C@H](NC(=O)[C@H](C(=O)O)c3ccsc3)C(=O)N2[C@H]1C(=O)O [Ticarcillin Disodium] | -22 | 7 | Q4 | 0 | 0 | –
CN(C)c1cc(NC(=O)CNC(C)(C)C)c(O)c2c1C[C@H]1C[C@H]3[C@H](N(C)C)C(O)=C(C(N)=O)C(=O)[C@@]3(O)C(O)=C1C2=O [Tigecycline] | 7 | 13 | Q4 | 0 | 0 | –
CCN(CC)CCOc1ccc2c(c1)C(=O)c1cc(OCCN(CC)CC)ccc1-2 [Tilorone] | – | – | – | – | – | inhibition at 10 µM [1, 13]: -21%; inhibition at 10 µM [2, 14]: 60%; Quadrant (FIG. 5b) [3, 15]: Q1; LPS % cell toxicity (primary rat microglia [4]; [16]): 1%; Fibrin % cell toxicity (primary rat microglia [5]; [17]): 0%
